# Test results published in publication PMC3551932, “STK295900, a Dual Inhibitor of Topoisomerase 1 and 2, Induces G2 Arrest in the Absence of DNA Damage” (PLoS ONE, 2013).
# Experiments:
# HepG2 cells = assay: Cell growth inhibition assay, HepG2; format: cell-based, human; settings: Homo sapiens, HepG2, 96 h, growth up to 4 days
# Excerpt: (§1) Human epitheloid cervical carcinoma HeLa cells, human breast adenocarcinoma MCF7 and MDA-MB-231cells, human hepatocellular carcinoma HepG2 cells, human colon adenocarcinoma HT-29 cells, and human colorectal carcinoma HCT-116 cells were purchased from ATCC® and maintained in DMEM medium. Human prostate carcinoma PC-3 cells (purchased from ATCC®), human gastric carcinoma SNU-484 and SNU-601(obtained from Korean Cell Line Bank (KCLB)), human leukemia K-562 and HL-60 cells (purchased from ATCC®), immortalized human prostate epithelial 267B1cells, and immortalized human embryonic lung fibroblast MRC5CV1 cells were maintained in RPMI 1640 medium whereas immortalized retinal pigment epithelial hTERT RPE-1 cells (purchased from ATCC®) were maintained in DMEM/F12 medium. All cell lines were cultured in media supplemented with 10% fetal bovine serum, 100 U/ml penicillin, and […] streptomycin at 37°C in a 5% CO2 incubator.
# (§2) Cells were seeded at the appropriate amount (1–2×10^3 cells) in triplicate in 96-well plates for 24 h and then treated with various concentrations of STK295900. Cell growth was determined by using EZ-CyTox cell viability assay kit (Daeil Lab. Service, Seoul, Korea). Ten microliters of WST solution were added to the treated cells at 24, 48, 72, and 96 h. Cells were further incubated at 37°C for 2 h and the absorbance was measured at 450 nm.
# HT-29 cells = assay: Cell growth inhibition assay, HT-29; format: cell-based, human; settings: Homo sapiens, HT-29, 96 h, growth up to 4 days
# Excerpt: as §1, §2
# SNU-601 cells = assay: Cell growth inhibition assay, SNU-601; format: cell-based; settings: Homo sapiens, 96 h; Table 1; SNU-601, gastric carcinoma; growth up to 4 days
# Excerpt: as §1, §2
# hTERT RPE-1 cells = assay: Cell growth inhibition assay, hTERT RPE-1; format: cell-based, human; settings: Homo sapiens, hTERT-RPE1, 96 h; Table 2 comparison; hTERT RPE-1, non-cancer; growth up to 4 days
# Excerpt: as §1, §2
# 267B1 cells = assay: Cell growth inhibition assay, 267B1; format: cell-based, human; settings: Homo sapiens, 96 h; Table 2 comparison; 267B1, non-cancer; growth up to 4 days
# Excerpt: as §1, §2
# MRC5CV1 cells = assay: Cell growth inhibition assay, MRC5CV1; format: cell-based, human; settings: Homo sapiens, 96 h; Table 2 comparison; MRC5CV1, non-cancer; growth up to 4 days
# Excerpt: as §1, §2
# HeLa cells [1] = assay: Flow cytometric analysis for cell cycle distribution; format: cell-based, human; settings: 24 h, control around 25%
# Protocol: For cell cycle analysis, HeLa cells were harvested following compound treatment for 24 h and stained with propidium iodide (PI) according to the instruction of Cycle Test Plus DNA Reagent kit from BD Biosciences (San Jose, CA). Flow cytometric analysis was performed using a FACSCalibur instrument (Becton Dickinson, San Jose, CA).
# Figure 2 STK295900 induces G2 phase arrest in HeLa cells. (A) Flow cytometric analysis for cell cycle distribution. HeLa cells were treated with the indicated concentrations of STK295900 for 24 h. Treated cells were then stained with propidium iodide (PI) and processed for cell cycle analysis. The bar graph represents the mean percentage of each cell cycle phase ± SD from three independent experiments. * = p<0.05 versus the respective G1, S, or G2/M phase of DMSO-treated cells. (B) Mitotic index of STK295900. HeLa cells were treated with the indicated concentrations of STK295900 for 24 h. Cells were then stained with Hoechst 33342 and mitotic cells were counted. […] (C) Cell cycle related proteins expression. […] Treated cells were lysed and subjected to immunoblot analyses with antibodies against cyclin A, cyclin B1, phospho-Histone H3 (S10), and Histone H3. β-actin was used as a loading control.
# HeLa cells [2] = assay: Mitotic index (Hoechst 33342 staining, mitotic cells counted); format: cell-based, human; settings: various concentrations, 24 h
# Excerpt: Given its strong growth inhibitory effect on various cancer cell types, STK295900 was examined to determine its effect on cell cycle distribution using flow cytometry analysis. […] We then analyzed whether the increasing G2/M population in Fig. 2A is indeed G2 or M phase by determining the mitotic index and investigating the cell cycle regulatory proteins. To determine mitotic index, the treated cells were stained with Hoechst 33342 and then mitotic cells were counted. […] (A) Flow cytometric analysis for cell cycle distribution. HeLa cells were treated with the indicated concentrations of STK295900 for 24 h. Treated cells were then stained with propidium iodide (PI) and processed for cell cycle analysis. The bar graph represents the mean percentage of each cell cycle phase ± SD from three independent experiments. * = p<0.05 versus the respective G1, S, or G2/M phase of DMSO-treated cells. […] HeLa cells were treated with the indicated concentrations of STK295900 for 24 h. Cells were then stained with Hoechst 33342 and mitotic cells were counted. […] (C) Cell cycle related proteins expression.
# [3] = molecular target: T1, calf thymus topoisomerase 1 (Bos taurus, UniProt F1MN93); assay: Supercoiled DNA relaxation assay for topoisomerase 1; format: biochemical
# T1 construct: purified calf thymus topoisomerase 1; purchased Takara Bio, Shiga, Japan; host or cells: calf thymus (tissue-purified)
# T1 sequence (F1MN93 1-767): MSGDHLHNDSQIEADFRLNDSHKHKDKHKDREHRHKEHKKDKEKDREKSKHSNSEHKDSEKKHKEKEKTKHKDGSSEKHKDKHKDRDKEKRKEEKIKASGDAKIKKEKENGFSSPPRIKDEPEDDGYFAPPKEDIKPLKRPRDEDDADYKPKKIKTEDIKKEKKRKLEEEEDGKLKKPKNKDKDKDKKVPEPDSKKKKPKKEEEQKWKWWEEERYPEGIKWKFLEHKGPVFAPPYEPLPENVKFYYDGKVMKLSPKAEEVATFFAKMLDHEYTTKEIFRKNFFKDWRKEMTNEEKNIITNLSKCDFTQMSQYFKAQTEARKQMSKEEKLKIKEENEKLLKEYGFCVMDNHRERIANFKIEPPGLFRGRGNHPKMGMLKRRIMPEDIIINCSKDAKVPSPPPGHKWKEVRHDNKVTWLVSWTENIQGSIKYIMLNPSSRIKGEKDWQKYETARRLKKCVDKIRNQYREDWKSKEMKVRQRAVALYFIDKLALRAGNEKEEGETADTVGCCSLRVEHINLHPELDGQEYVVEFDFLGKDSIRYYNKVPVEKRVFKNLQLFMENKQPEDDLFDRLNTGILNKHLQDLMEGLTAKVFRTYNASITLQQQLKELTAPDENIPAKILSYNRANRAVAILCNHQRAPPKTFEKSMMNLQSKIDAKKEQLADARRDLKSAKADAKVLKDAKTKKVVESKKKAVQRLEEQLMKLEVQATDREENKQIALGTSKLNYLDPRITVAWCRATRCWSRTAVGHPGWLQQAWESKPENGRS
smiles,measurement,setting,value
"Nc1ccc(-c2nc3ccc(-c4ccc5nc(-c6ccc(N)cc6)[nH]c5c4)cc3[nH]2)cc1 [STK295900, 4,4′-(3H,3′H-5,5′-bibenzimidazole-2,2′-diyl)dianiline]",IC50,"HepG2 cells; Table 1, HepG2, hepatocellular carcinoma",170 nM
same,IC50,"HepG2 cells; Table 2 comparison, HepG2",140 nM
same,IC50,"HT-29 cells; Table 1, HT-29, colon adenocarcinoma",270 nM
same,IC50,"HT-29 cells; Table 2 comparison, HT-29",210 nM
same,IC50,SNU-601 cells,2210 nM
same,IC50,hTERT RPE-1 cells,3430 nM
same,IC50,267B1 cells,1610 nM
same,IC50,MRC5CV1 cells,950 nM
same,G2/M population,HeLa cells [1]; 0.5 µM,about 35%
same,G2/M population,HeLa cells [1]; 1 µM,~55%
same,G2/M population,HeLa cells [1]; 5 µM,~65%
same,mitotic index,HeLa cells [2],no significant change in mitotic index
same,supercoiled DNA at high concentrations (Top 1 catalytic activity),[3]; high concentrations (50 and 100 µM),supercoiled DNA could be observed
same,Top 1-mediated DNA relaxation,"[3]; pBR322, 37°C, 30 min, various concentrations",inhibited DNA relaxation activity of Top 1 in a dose-dependent manner
